From patent US10953015B2, “Use of adenosine receptor signaling to regulate P-gp function” (CORNELL UNIVERSITY, priority 2016, dated 2021) come the findings set out here.

Test [1] deals with P-gp. As to the kind of experiment: Western blot of P-gp expression in primary mouse brain endothelial cells. The format is cell-based. The note with it: 1 μM, up to 72 hours. The procedure:
Mice were sacrificed and meninges of brain were removed and ground using a plunger and centrifuged at 3,000 g for 5 minutes. The obtained pellet was dissolved in 18% dextran and centrifuged at 10,000 g for 10 minutes and digested with DMEM containing collagenase, DNAse, and dispase at 37° C. for 75 minutes. The sample was centrifuged for 5 minutes at 3,200 g, and the pellet was washed with warm PBS. The pellet was resuspended in DMEM/F12 with puromycin, heparin, 20% PDS, and 1-glutamine and plated onto the proper plate.
HCMEC-D3 and HBMVEC cells were plated in 12-well plates and were grown until they reached 100% confluency. The media was replaced with fresh media containing 1 μM of Lexiscan® or NECA with proper vehicle control (DMSO) for up to 72 hours. Cells were lysed by lysis buffer […] containing protease inhibitor cocktail and stored for later use (−70° C.). For cytoskeletal fraction analysis, cells were lysed in CSK buffer (100 mM NaCl, 300 mM sucrose, 3 mM MgCl2, 10 mM PIPES, pH 6.8). For brain samples, half of the brain was homogenized and lysed with […] lysis buffer and centrifuged at 17,000 g for 20 minutes and 1:10 diluted samples were used for analysis. […] The intensity of band was analyzed with densitometric analysis and plotted as a graph for analysis of time-course effect of AR signaling on P-gp expression.
On the technique in general: Immunoblotting shows a protein as a band on a membrane.

Test [2] concerns P-gp. As to the kind of experiment: P-gp expression in brain of WT mice (western blot, IFA of frozen section). In kind it is in vivo, mouse. On the procedure: (§1) HCMEC-D3 and HBMVEC cells were plated in 12-well plates and were grown until they reached 100% confluency. The media was replaced with fresh media containing 1 μM of Lexiscan® or NECA with proper vehicle control (DMSO) for up to 72 hours. Cells were lysed by lysis buffer […] containing protease inhibitor cocktail and stored for later use (−70° C.). For cytoskeletal fraction analysis, cells were lysed in CSK buffer (100 mM NaCl, 300 mM sucrose, 3 mM MgCl2, 10 mM PIPES, pH 6.8). For brain samples, half of the brain was homogenized and lysed with […] lysis buffer and centrifuged at 17,000 g for 20 minutes and 1:10 diluted samples were used for analysis. Sample was loaded on 7% SDS PAGE at 100 V for 1 hour and transferred to the nitrocellulose paper. It was blocked with 1% BSA and incubated with anti-P-gp antibody (Genetex, 1:2000) overnight. Subsequently, it was washed with TBST and incubated with anti-rabbit secondary antibody (1:2000) for 1 hour. It was washed with TBST and developed with ECL substrate and exposed to x-ray film. Anti-GAPDH or −β-actin antibody was used as loading control. The intensity of band was analyzed with densitometric analysis and plotted as a graph for analysis of time-course effect of AR signaling on P-gp expression.
Mice were treated with Lexiscan® or NECA at different time points and were infused with ice-cold PBS and sacrificed. Half of the brain was cut and put in the cassette and filled with OCT solution. Samples were snap-frozen with liquid nitrogen, cut with cryostat (10 μm) and fixed with acetone for 5 minutes, and incubated with C219 for P-gp stain (1:100) and Glut1 for endothelial cell marker (1:100) at 4° C. overnight. Sections were washed with PBS and additionally stained with secondary antibody conjugated with fluorochrome. Full images of the brain sections were visualized and recorded using Aperio Scan Scope (Leica Biosystems).

The target in test [3] is T1, P-gp (Mus musculus, UniProt P21447).
T1 construct: down-modulation of P-gp expression and function in brain vascular endothelial cells in WT mice; from tissue; host or cells: brain of WT mice
T1 sequence (P21447 whole entry): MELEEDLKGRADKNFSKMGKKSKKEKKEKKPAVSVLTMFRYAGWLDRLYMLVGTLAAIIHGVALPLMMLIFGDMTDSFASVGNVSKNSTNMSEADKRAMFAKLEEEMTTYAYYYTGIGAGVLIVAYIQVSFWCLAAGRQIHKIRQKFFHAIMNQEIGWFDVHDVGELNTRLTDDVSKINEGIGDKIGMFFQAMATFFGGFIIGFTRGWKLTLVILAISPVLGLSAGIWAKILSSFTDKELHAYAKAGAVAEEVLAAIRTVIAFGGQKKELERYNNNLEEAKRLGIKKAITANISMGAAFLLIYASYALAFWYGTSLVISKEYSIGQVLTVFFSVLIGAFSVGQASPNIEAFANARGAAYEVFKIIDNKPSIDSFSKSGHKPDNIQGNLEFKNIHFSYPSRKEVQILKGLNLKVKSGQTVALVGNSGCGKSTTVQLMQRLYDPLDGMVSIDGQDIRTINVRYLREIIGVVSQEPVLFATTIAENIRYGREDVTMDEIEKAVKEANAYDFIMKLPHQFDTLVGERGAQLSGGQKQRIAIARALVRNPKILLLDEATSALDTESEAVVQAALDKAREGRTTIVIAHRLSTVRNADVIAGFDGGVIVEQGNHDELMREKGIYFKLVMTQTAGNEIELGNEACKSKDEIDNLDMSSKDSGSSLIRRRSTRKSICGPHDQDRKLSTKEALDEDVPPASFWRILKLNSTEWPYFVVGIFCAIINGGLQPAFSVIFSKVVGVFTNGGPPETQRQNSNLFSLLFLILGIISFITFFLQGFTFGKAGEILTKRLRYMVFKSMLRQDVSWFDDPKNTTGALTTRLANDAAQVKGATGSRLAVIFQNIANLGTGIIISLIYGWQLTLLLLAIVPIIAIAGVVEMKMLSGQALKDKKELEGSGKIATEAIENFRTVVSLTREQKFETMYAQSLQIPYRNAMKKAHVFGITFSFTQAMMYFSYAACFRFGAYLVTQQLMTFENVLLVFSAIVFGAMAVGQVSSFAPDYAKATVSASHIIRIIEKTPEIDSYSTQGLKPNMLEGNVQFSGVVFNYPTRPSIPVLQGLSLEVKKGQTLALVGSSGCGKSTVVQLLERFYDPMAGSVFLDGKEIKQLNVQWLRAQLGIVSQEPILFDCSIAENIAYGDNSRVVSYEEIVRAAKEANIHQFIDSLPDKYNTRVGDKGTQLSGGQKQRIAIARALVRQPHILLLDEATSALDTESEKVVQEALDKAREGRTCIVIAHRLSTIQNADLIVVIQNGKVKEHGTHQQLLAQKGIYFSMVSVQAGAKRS
As to the kind of experiment: Epirubicin brain accumulation assay. In kind it is in vivo. As to conditions: mice. The procedure:
FIG. 12A is a fluorescence microscopy image showing immunofluorescence images of brains from Lexiscan®-treated mice of WT brain at 15 and 30 minutes after Lexiscan® treatment. Frozen brain sections were stained with GLUT1 (red), or P-gp (green) and counterstained with DAPI (blue). FIG. 12B is a fluorescence microscopy image showing an enlarged image of FIG. 12A. FIG. 12C is a graph summarizing the experimental results of a brain epirubicin accumulation assay in the Lexiscan®- and vehicle-treated (control) mice. Briefly, 10 mg/kg of epirubicin was injected intravenously with or without 0.05 mg/kg of Lexiscan®. Mice were perfused with ice-cold PBS and sacrificed at different time points. The accumulation of epirubicin in the brain was measured using fluorometric excitation at 488 nm and emission at 590 nm. *P<0.05 (n=4, 2-tailed Student's t test). FIG. 12D are fluorescence microscopy images showing fluorescent microscopic analysis of epirubicin accumulation in the brains of mice treated with Lexiscan® or PSC833 (a functional P-gp inhibitor) compared with vehicle (control). 10 mg/kg of epirubicin was injected intravenously with or without 0.05 mg/kg of Lexiscan® or 50 mg/kg of PSC833 for 15 minutes. Mice were perfused with ice-cold PBS and sacrificed. Brain was sectioned for microscopic analysis for full-brain image, and focal zoomed image from cortex was laid as an inset. Epirubicin is in red, and nucleus was counterstained with DAPI (blue). FIG. 12E are graphs showing the quantified intensity of epirubicin from different regions of cortex (CTX), cerebellum (CRBL), and hippocampus (HPC) from brains of control, Lexiscan®-, or PSC833-injected animals and depicted as graphs. The scale bars indicate 100 μm in FIG. 12A; 50 μm in FIG. 12B, and 5 mm in FIG. 12D). ***P<0.001 (n=50, 2-tailed Student's t test).
FIG. 14A is a western blot of P-gp and BCRP1 from mouse brain at 2 and 18 hours after NECA treatment. FIG. 14B are graphs showing the enumeration of the expression intensity of P-gp and BCRP1 from the western blots shown in FIG. 14A. The intensity of the bands from NECA treatment group was divided by that of DMSO control. […] For fluorescence microscopy, frozen brain sections were stained with GLUT1 (red) or P-gp (green) and counterstained with DAPI (blue). […] The accumulation of epirubicin in the brain was measured using fluorometry, with excitation at 488 nm and emission at 590 nm. *P<0.05 (n=4, 2-tailed Student's t test).
For Lexiscan® study, 10 mg/kg of epirubicin was injected with or without Lexiscan® (0.05 mg/kg) at different time points, and mice were sacrificed. […] Samples were spun down at 17,000 g for 30 minutes, and the concentration for epirubicin was analyzed with fluorimetry with […].

In test [4] the test system is P-gp. As to the kind of experiment: Western blot of P-gp expression in HCMEC-D3 cells. The format is cell-based, human. The note with it: 1 μM, up to 72 hours. On the procedure: as §1

On to `CCNC(=O)[C@H]1O[C@@H](n2cnc3c(N)ncnc32)[C@H](O)[C@@H]1O` [NECA, (2S,3S,4R,5R)-5-(6-aminopurin-9-yl)-N-ethyl-3,4-dihydroxyoxolane-2-carboxamide], for which, in test [1], the “P-gp expression (western blot, normalized to GAPDH)” value was “P-gp expression decreased very rapidly and remained down-modulated for up to 4 hours”. The “P-gp expression level in brain” value in test [2] (2 and 18 hours after NECA) is “gradual decrease in P-gp expression level, beginning at 2 hours; this was maintained for up to 18 hours”. Besides, the “Epirubicin accumulation in the brain (fluorometry)” value in test [3] (0.08 mg/kg NECA i.v., then 10 mg/kg epirubicin i.v. for 15 minutes) was “showed epirubicin accumulation in the brain that matched the kinetics of P-gp decrease”. Moreover, the “P-gp expression (western blot, vs DMSO control)” value in test [4] is reported as “decreased P-gp expression for up to 4 hours”.
Regarding `CNC(=O)c1cnn(-c2nc(N)c3ncn([C@@H]4O[C@H](CO)[C@@H](O)[C@H]4O)c3n2)c1` [Lexiscan®, 1-[6-amino-9-[(2R,3R,4S,5R)-3,4-dihydroxy-5-(hydroxymethyl)oxolan-2-yl]purin-2-yl]-N-methylpyrazole-4-carboxamide], the “P-gp expression (western blot, normalized to GAPDH)” value in test [1] is reported as “rapid down-modulation of P-gp beginning at 30 minutes, which was maintained for up to 1 hour”. In test [2], the “Time at which effect on P-gp occurred” value is not above 5 min. Moreover, the “P-gp expression in brain endothelial cells” value in test [2] (Lexiscan® treatment, 5 to 60 minutes) is “decreased P-gp expression in brain endothelial cells in WT mice between 5 and 15 minutes; this was recovered by 30 minutes”. Further, the “Epirubicin fluorescent intensity in brain sections (cortex, cerebellum, hippocampus)” value in test [3] (10 mg/kg epirubicin i.v. with 0.05 mg/kg Lexiscan® or 50 mg/kg PSC833 for 15 minutes) is “Significant epirubicin intensity in the cerebral cortex, the cerebellum, and the hippocampus”. In test [3] (10 mg/kg epirubicin i.v. with 0.05 mg/kg Lexiscan®, different time points), the “Epirubicin accumulation in the brain (fluorometry)” value is “began to increase at 5 minutes; this was maintained up to 30 minutes and returned to baseline by 60 minutes”. Moreover, in test [4], the “P-gp expression (western blot, vs DMSO control)” value is “rapid decrease in P-gp expression beginning at 30 minutes, which was maintained for up to 1 hour”.
